Experimental data reported in patent US20230094076A1, “COMBINATION THERAPY” (GlaxoSmithKline Intellectual Property Development Limited, priority 2016, published 2023).

Assays:
[1] = molecular target: PRMT8 (Homo sapiens, UniProt Q9NR22); experiment: PRMT family radioactive assay; assay type: biochemical
[2] = system: 196 human cancer cell lines (Total); conditions: percent of cell lines, 196 cell lines
Method: (§1) The growth of all cell lines was evaluated over time across a wide range of seeding densities to identify conditions that permitted proliferation throughout the entire 6-day assay. Cells were plated at the optimal seeding density and after overnight incubation, a 20-point 2-fold titration of compound was added and plates were incubated for 6 days. A replicate plate of cells was harvested at the time of compound addition to quantify the starting number of cells (T0). Values obtained after the 6 day treatment were expressed as a function of the T0 value and plotted against compound concentration. The T0 value was normalized to 100% and represents the number of cells at the time of compound addition. The data were fit with a 4 parameter equation to generate a concentration response curve and the growth IC50 (gIC50) was determined. The gIC50 is the midpoint of the ‘growth window’, the difference between the number of cells at the time of compound addition (To) and the number of cells after 6 days (DMSO control). The growth-death assay can be used to quantify the net population change, clearly defining cell death (cytotoxicity) as fewer cells compared to the number at the time of compound addition (T0).

[3] = system: 769-P; conditions: ccRCC, 6-day
Method: as §1

[4] = system: A375; conditions: A375, melanoma, 6-day
Method: as §1

[5] = system: A498; conditions: A498, ccRCC, 6-day
Method: as §1

[6] = system: Bladder cancer cell lines; conditions: 18 cell lines
Method: as §1

[7] = system: CAKI-1; conditions: CAKI-1, ccRCC, 6-day
Method: as §1

[8] = system: COLO741; conditions: COLO741, melanoma, 6-day
Method: as §1

[9] = system: Colon cancer cell lines; conditions: percent of cell lines, 34 cell lines
Method: as §1

[10] = system: G-401; conditions: G-401, Wilm's, 6-day
Method: as §1

[11] = system: HL-60; conditions: HL-60, AML subtype M3, 6-day
Method: as §1

[12] = system: HT144; conditions: HT144, melanoma, 6-day
Method: as §1

[13] = system: IGR-1; conditions: IGR-1, melanoma, 6-day
Method: as §1

[14] = system: KASUMI-; conditions: AML subtype M2, 6-day
Method: as §1

[15] = system: Lymphoma cell lines; conditions: 59 cell lines
Method: as §1

[16] = system: MDA-MB-; conditions: melanoma, 6-day
Method: as §1

[17] = system: MOLM-13; conditions: MOLM-13, AML subtype M5, 6-day
Method: as §1

[18] = system: MOLM-16; conditions: MOLM-16, AML subtype M0, 6-day
Method: as §1

[19] = system: Melanoma cell lines; conditions: 7 cell lines
Method: as §1

[20] = system: NOMO-1; conditions: NOMO-1, AML subtype M5, 6-day
Method: as §1

[21] = system: NSCLC cell lines; conditions: percent of cell lines, 25 cell lines
Method: as §1

[22] = system: SHI-1; conditions: SHI-1, AML subtype M5, 6-day
Method: as §1

[23] = system: SK-MEL-2; conditions: SK-MEL-2, melanoma, 6-day
Method: as §1

[24] = system: SK-NEP-1; conditions: SK-NEP-1, Wilm's, 6-day
Method: as §1

[25] = system: SKM-1; conditions: SKM-1, AML subtype M5, 6-day
Method: as §1

[26] = system: SW156; conditions: SW156, ccRCC, 6-day
Method: as §1

[27] = system: TF-1; conditions: TF-1, AML subtype M6, 6-day
Method: as §1

[28] = system: arginine methylation (ADMA, MMA, SDMA) in Toledo cells; experiment: Durability of arginine methylation changes after compound washout (western); assay type: cell-based, human; conditions: 0.4 μM for 72 hours, then washout
Method: (A) Stability of changes to ADMA. […] (B) Representative western blots of arginine methylation marks. Regions quantified for (A) are denoted by black bars on the side of the gel.
Cells were then washed, cultured in Compound A-free media, samples were collected daily through 120 hours, and arginine methylation levels were examined by western analysis. […] SDMA appeared to continue to increase even after 6 hours of washout. This is consistent with the continued increase observed through 120 hours without any obvious plateau (FIG. 12) coupled with the durable increase in MMA that has not yet returned to baseline after washout. Durability of each modification generally reflected the kinetics of arginine methylation changes brought about by Compound A, with MMA being the most rapid.

Sequence of PRMT8 (Q9NR22 whole entry): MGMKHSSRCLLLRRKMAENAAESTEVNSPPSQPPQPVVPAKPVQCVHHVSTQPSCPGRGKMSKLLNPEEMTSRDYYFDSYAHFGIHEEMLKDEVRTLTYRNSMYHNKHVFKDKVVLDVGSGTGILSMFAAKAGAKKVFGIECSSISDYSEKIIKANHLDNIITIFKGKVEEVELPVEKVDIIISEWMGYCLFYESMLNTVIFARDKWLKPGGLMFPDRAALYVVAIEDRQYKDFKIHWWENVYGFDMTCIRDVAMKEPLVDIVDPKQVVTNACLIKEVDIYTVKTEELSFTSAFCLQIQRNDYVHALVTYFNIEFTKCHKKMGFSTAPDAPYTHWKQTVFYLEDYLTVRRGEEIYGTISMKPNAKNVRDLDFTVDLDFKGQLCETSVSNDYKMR

**Q.** For CCOCC1(COCC)CCC(c2n[nH]cc2CN(C)CCNC)CC1 [Compound A], which inhibition of activity ([1]; 60 minute SAM:Enzyme:Compound A preincubation) is on record?
**A.** inhibited the activity

**Q.** What about the “time dependence of inhibition” value ([1]; increasing preincubation times) of the same compound?
**A.** time dependent inhibitor

**Q.** What about the “% gIC100 < 2” value [2] of the same compound?
**A.** 4%

**Q.** And the “Ymin − T0” value [3]?
**A.** 119.0

**Q.** What about the “Ymin − T0” value [4] of the same compound?
**A.** 91.9

**Q.** And the gIC100 [4]?
**A.** 29.33 ± 0.00 µM

**Q.** And the “Ymin − T0” value [5]?
**A.** 313.4

**Q.** And the “Median gIC100” value ([6]; 6-day proliferation)?
**A.** 29.33 µM

**Q.** What about the “% Cytotoxic” value ([6]; percent of cell lines) of the same compound?
**A.** 0%

**Q.** And the “% gIC100 < 2” value ([6]; percent of cell lines)?
**A.** 0%

**Q.** And the “Ymin − T0” value [7]?
**A.** 178.7

**Q.** And the “Ymin − T0” value [8]?
**A.** 12.5

**Q.** And the gIC100 [8]?
**A.** 28.55 ± 1.40 µM

**Q.** What about the “% Cytotoxic” value [9] of the same compound?
**A.** 3%

**Q.** And the “% gIC100 < 2” value [9]?
**A.** 0%

**Q.** What about the “Ymin − T0” value [10] of the same compound?
**A.** 353.7

**Q.** And the gIC100 [11]?
**A.** 6.38 ± 12.83 µM

**Q.** And the “Ymin − T0” value ([11]; negative = cell death)?
**A.** −33.4

**Q.** What about the “Ymin − T0” value [12] of the same compound?
**A.** 124.9

**Q.** And the gIC100 [12]?
**A.** 29.33 ± 0.00 µM

**Q.** And the “Ymin − T0” value [13]?
**A.** 507.0

**Q.** And the gIC100 [13]?
**A.** 29.33 ± 0.00 µM

**Q.** And the gIC100 [14]?
**A.** 18.88 ± 10.55 µM

**Q.** And the “Ymin − T0” value ([14]; negative = cell death)?
**A.** −17.7

**Q.** What about the “Median gIC100” value ([15]; 6-day proliferation) of the same compound?
**A.** 21.62 µM

**Q.** And the “% Cytotoxic” value ([15]; percent of cell lines)?
**A.** 54%

**Q.** And the “% gIC100 < 2” value ([15]; percent of cell lines)?
**A.** 14%

**Q.** What about the “Ymin − T0” value [16] of the same compound?
**A.** 19.1

**Q.** What about the gIC100 [16] of the same compound?
**A.** 29.33 ± 0.00 µM

**Q.** What about the gIC100 [17] of the same compound?
**A.** 8.64 ± 0.39 µM

**Q.** What about the “Ymin − T0” value ([17]; negative = cell death) of the same compound?
**A.** −100.0

**Q.** And the gIC100 [18]?
**A.** 9.69 ± 10.58 µM

**Q.** And the “Ymin − T0” value ([18]; negative = cell death)?
**A.** −68.6

**Q.** And the “Median gIC100” value ([19]; 6-day proliferation)?
**A.** 29.33 µM

**Q.** And the “% Cytotoxic” value ([19]; percent of cell lines)?
**A.** 0%

**Q.** What about the “% gIC100 < 2” value ([19]; percent of cell lines) of the same compound?
**A.** 0%

**Q.** What about the gIC100 [20] of the same compound?
**A.** 29.33 ± 0.00 µM

**Q.** And the “Ymin − T0” value ([20]; negative = cell death)?
**A.** 259.1

**Q.** What about the “% Cytotoxic” value [21] of the same compound?
**A.** 16%

**Q.** And the “% gIC100 < 2” value [21]?
**A.** 0%

**Q.** What about the gIC100 [22] of the same compound?
**A.** 29.33 ± 0.02 µM

**Q.** What about the “Ymin − T0” value ([22]; negative = cell death) of the same compound?
**A.** 292.0

**Q.** What about the “Ymin − T0” value [23] of the same compound?
**A.** 35.9

**Q.** And the gIC100 [23]?
**A.** 22.37 µM

**Q.** And the “Ymin − T0” value [24]?
**A.** 25.3

**Q.** And the gIC100 [25]?
**A.** 11.61 ± 5.52 µM

**Q.** What about the “Ymin − T0” value ([25]; negative = cell death) of the same compound?
**A.** −19.1

**Q.** And the “Ymin − T0” value [26]?
**A.** 346.7

**Q.** What about the gIC100 [27] of the same compound?
**A.** 29.33 ± 0.00 µM

**Q.** What about the “Ymin − T0” value ([27]; negative = cell death) of the same compound?
**A.** 788.1

**Q.** What about the “time for ADMA to return to baseline after washout” value [28] of the same compound?
**A.** ≤ 24 h

**Q.** What about the “time for MMA to return to baseline after washout” value [28] of the same compound?
**A.** ≤ 24 h

**Q.** What about the “time for SDMA to return to baseline after washout” value [28] of the same compound?
**A.** ≤ 96 h
